According to ChEMBL document CHEMBL1134253, “HIV Rev peptides conjugated with peptide nucleic acids and their efficient binding to RRE RNA” (Bioorg Med Chem Lett, 2001):

Key:
[1] = tested on: Rev responsive element (RRE) RNA; test: Ratio of the dissociation constant between Rev37-50 and the PNA-peptide; assay type: nucleic-acid assay
[2] = biological target: Rev responsive element (RRE) RNA; test: Dissociation constant of compound with Rev-responsive element (RRE) IIB RNA was determined by the competition assay; assay type: nucleic-acid assay

Ratio [1] | Kd [2] | Compound
15 | 5.7 nM | C[C@H](NC(=O)CN(CCNC(=O)CN(CCNC(=O)CN(CCNC(=O)CN(CCNC(=O)CCC(=O)O)C(=O)Cn1cnc2c(=O)[nH]c(N)nc21)C(=O)Cn1ccc(N)nc1=O)C(=O)Cn1cnc2c(=O)[nH]c(N)nc21)C(=O)Cn1ccc(N)nc1=O)C(=O)N[C@@H](CCCNC(=N)N)C(=O)N[C@@H](CCCNC(=N)N)C(=O)N[C@@H](CC(N)=O)C(=O)N[C@@H](CCCNC(=N)N)C(=O)N[C@@H](CCCNC(=N)N)C(=O)N[C@@H](CCCNC(=N)N)C(=O)N[C@@H](CCCNC(=N)N)C(=O)N[C@@H](Cc1c[nH]c2ccccc12)C(=O)N[C@@H](CCCNC(=N)N)C(=O)N[C@@H](CCC(=O)O)C(=O)N[C@@H](CCCNC(=N)N)C(=O)N[C@@H](CCC(N)=O)C(=O)N[C@H](CCCNC(=N)N)C(N)=O
2.2 | 39 nM | Cc1cn(CC(=O)N(CCNC(=O)CCC(=O)O)CC(=O)N[C@@H](C)C(=O)N[C@@H](CCCNC(=N)N)C(=O)N[C@@H](CCCNC(=N)N)C(=O)N[C@@H](CC(N)=O)C(=O)N[C@@H](CCCNC(=N)N)C(=O)N[C@@H](CCCNC(=N)N)C(=O)N[C@@H](CCCNC(=N)N)C(=O)N[C@@H](CCCNC(=N)N)C(=O)N[C@@H](Cc2c[nH]c3ccccc23)C(=O)N[C@@H](CCCNC(=N)N)C(=O)N[C@@H](CCC(=O)O)C(=O)N[C@@H](CCCNC(=N)N)C(=O)N[C@@H](CCC(N)=O)C(=O)N[C@H](CCCNC(=N)N)C(N)=O)c(=O)[nH]c1=O
9 | 9.6 nM | C[C@H](NC(=O)CN(CCNC(=O)CN(CCNC(=O)CN(CCNC(=O)CCC(=O)O)C(=O)Cn1ccc(N)nc1=O)C(=O)Cn1cnc2c(=O)[nH]c(N)nc21)C(=O)Cn1ccc(N)nc1=O)C(=O)N[C@@H](CCCNC(=N)N)C(=O)N[C@@H](CCCNC(=N)N)C(=O)N[C@@H](CC(N)=O)C(=O)N[C@@H](CCCNC(=N)N)C(=O)N[C@@H](CCCNC(=N)N)C(=O)N[C@@H](CCCNC(=N)N)C(=O)N[C@@H](CCCNC(=N)N)C(=O)N[C@@H](Cc1c[nH]c2ccccc12)C(=O)N[C@@H](CCCNC(=N)N)C(=O)N[C@@H](CCC(=O)O)C(=O)N[C@@H](CCCNC(=N)N)C(=O)N[C@@H](CCC(N)=O)C(=O)N[C@H](CCCNC(=N)N)C(N)=O
9.9 | 8.7 nM | C[C@H](NC(=O)CN(CCNC(=O)CN(CCNC(=O)CN(CCNC(=O)CCC(=O)O)C(=O)Cn1cnc2c(=O)[nH]c(N)nc21)C(=O)Cn1cnc2c(=O)[nH]c(N)nc21)C(=O)Cn1ccc(N)nc1=O)C(=O)N[C@@H](CCCNC(=N)N)C(=O)N[C@@H](CCCNC(=N)N)C(=O)N[C@@H](CC(N)=O)C(=O)N[C@@H](CCCNC(=N)N)C(=O)N[C@@H](CCCNC(=N)N)C(=O)N[C@@H](CCCNC(=N)N)C(=O)N[C@@H](CCCNC(=N)N)C(=O)N[C@@H](Cc1c[nH]c2ccccc12)C(=O)N[C@@H](CCCNC(=N)N)C(=O)N[C@@H](CCC(=O)O)C(=O)N[C@@H](CCCNC(=N)N)C(=O)N[C@@H](CCC(N)=O)C(=O)N[C@H](CCCNC(=N)N)C(N)=O
 | > 100000 nM | CC(=O)NCCN(CC(=O)NCCN(CC(=O)NCCN(CC(=O)NCCN(CC(=O)NCCN(CC(=O)N[C@@H](CCCCN)C(=O)CN)C(=O)Cn1ccc(N)nc1=O)C(=O)Cn1cnc2c(O)nc(N)nc21)C(=O)Cn1ccc(N)nc1=O)C(=O)Cn1cnc2c(O)nc(N)nc21)C(=O)Cn1cc(C)c(=O)[nH]c1=O
3.1 | 28 nM | C[C@H](NC(=O)CN(CCNC(=O)CN(CCNC(=O)CCC(=O)O)C(=O)Cn1cnc2c(N)ncnc21)C(=O)Cn1ccc(N)nc1=O)C(=O)N[C@@H](CCCNC(=N)N)C(=O)N[C@@H](CCCNC(=N)N)C(=O)N[C@@H](CC(N)=O)C(=O)N[C@@H](CCCNC(=N)N)C(=O)N[C@@H](CCCNC(=N)N)C(=O)N[C@@H](CCCNC(=N)N)C(=O)N[C@@H](CCCNC(=N)N)C(=O)N[C@@H](Cc1c[nH]c2ccccc12)C(=O)N[C@@H](CCCNC(=N)N)C(=O)N[C@@H](CCC(=O)O)C(=O)N[C@@H](CCCNC(=N)N)C(=O)N[C@@H](CCC(N)=O)C(=O)N[C@H](CCCNC(=N)N)C(N)=O

More lines, now with the values behind:

Compound | Ratio [1] | Kd [2]
C[C@H](NC(=O)CN(CCNC(=O)CN(CCNC(=O)CCC(=O)O)C(=O)Cn1ccc(N)nc1=O)C(=O)Cn1ccc(N)nc1=O)C(=O)N[C@@H](CCCNC(=N)N)C(=O)N[C@@H](CCCNC(=N)N)C(=O)N[C@@H](CC(N)=O)C(=O)N[C@@H](CCCNC(=N)N)C(=O)N[C@@H](CCCNC(=N)N)C(=O)N[C@@H](CCCNC(=N)N)C(=O)N[C@@H](CCCNC(=N)N)C(=O)N[C@@H](Cc1c[nH]c2ccccc12)C(=O)N[C@@H](CCCNC(=N)N)C(=O)N[C@@H](CCC(=O)O)C(=O)N[C@@H](CCCNC(=N)N)C(=O)N[C@@H](CCC(N)=O)C(=O)N[C@H](CCCNC(=N)N)C(N)=O | 3.1 | 28 nM
C[C@H](NC(=O)CCC(=O)O)C(=O)N[C@@H](CCCNC(=N)N)C(=O)N[C@@H](CCCNC(=N)N)C(=O)N[C@@H](CC(N)=O)C(=O)N[C@@H](CCCNC(=N)N)C(=O)N[C@@H](CCCNC(=N)N)C(=O)N[C@@H](CCCNC(=N)N)C(=O)N[C@@H](CCCNC(=N)N)C(=O)N[C@@H](Cc1c[nH]c2ccccc12)C(=O)N[C@@H](CCCNC(=N)N)C(=O)N[C@@H](CCC(=O)O)C(=O)N[C@@H](CCCNC(=N)N)C(=O)N[C@@H](CCC(N)=O)C(=O)N[C@H](CCCNC(=N)N)C(N)=O | 1 | 86 nM
C[C@H](NC(=O)CN(CCNC(=O)CN(CCNC(=O)CN(CCNC(=O)CCC(=O)O)C(=O)Cn1ccc(N)nc1=O)C(=O)Cn1ccc(N)nc1=O)C(=O)Cn1ccc(N)nc1=O)C(=O)N[C@@H](CCCNC(=N)N)C(=O)N[C@@H](CCCNC(=N)N)C(=O)N[C@@H](CC(N)=O)C(=O)N[C@@H](CCCNC(=N)N)C(=O)N[C@@H](CCCNC(=N)N)C(=O)N[C@@H](CCCNC(=N)N)C(=O)N[C@@H](CCCNC(=N)N)C(=O)N[C@@H](Cc1c[nH]c2ccccc12)C(=O)N[C@@H](CCCNC(=N)N)C(=O)N[C@@H](CCC(=O)O)C(=O)N[C@@H](CCCNC(=N)N)C(=O)N[C@@H](CCC(N)=O)C(=O)N[C@H](CCCNC(=N)N)C(N)=O | 2.5 | 34 nM
Cc1cn(CC(=O)N(CCNC(=O)CCC(=O)O)CC(=O)NCCN(CC(=O)NCCN(CC(=O)N[C@@H](C)C(=O)N[C@@H](CCCNC(=N)N)C(=O)N[C@@H](CCCNC(=N)N)C(=O)N[C@@H](CC(N)=O)C(=O)N[C@@H](CCCNC(=N)N)C(=O)N[C@@H](CCCNC(=N)N)C(=O)N[C@@H](CCCNC(=N)N)C(=O)N[C@@H](CCCNC(=N)N)C(=O)N[C@@H](Cc2c[nH]c3ccccc23)C(=O)N[C@@H](CCCNC(=N)N)C(=O)N[C@@H](CCC(=O)O)C(=O)N[C@@H](CCCNC(=N)N)C(=O)N[C@@H](CCC(N)=O)C(=O)N[C@H](CCCNC(=N)N)C(N)=O)C(=O)Cn2ccc(N)nc2=O)C(=O)Cn2cnc3c(=O)[nH]c(N)nc32)c(=O)[nH]c1=O | 5.1 | 17 nM
C[C@H](NC(=O)CN(CCNC(=O)CN(CCNC(=O)CN(CCNC(=O)CCC(=O)O)C(=O)Cn1cnc2c(N)ncnc21)C(=O)Cn1cnc2c(=O)[nH]c(N)nc21)C(=O)Cn1ccc(N)nc1=O)C(=O)N[C@@H](CCCNC(=N)N)C(=O)N[C@@H](CCCNC(=N)N)C(=O)N[C@@H](CC(N)=O)C(=O)N[C@@H](CCCNC(=N)N)C(=O)N[C@@H](CCCNC(=N)N)C(=O)N[C@@H](CCCNC(=N)N)C(=O)N[C@@H](CCCNC(=N)N)C(=O)N[C@@H](Cc1c[nH]c2ccccc12)C(=O)N[C@@H](CCCNC(=N)N)C(=O)N[C@@H](CCC(=O)O)C(=O)N[C@@H](CCCNC(=N)N)C(=O)N[C@@H](CCC(N)=O)C(=O)N[C@H](CCCNC(=N)N)C(N)=O | 5.7 | 15 nM
C[C@H](NC(=O)CN(CCNC(=O)CCC(=O)O)C(=O)Cn1cnc2c(=O)[nH]c(N)nc21)C(=O)N[C@@H](CCCNC(=N)N)C(=O)N[C@@H](CCCNC(=N)N)C(=O)N[C@@H](CC(N)=O)C(=O)N[C@@H](CCCNC(=N)N)C(=O)N[C@@H](CCCNC(=N)N)C(=O)N[C@@H](CCCNC(=N)N)C(=O)N[C@@H](CCCNC(=N)N)C(=O)N[C@@H](Cc1c[nH]c2ccccc12)C(=O)N[C@@H](CCCNC(=N)N)C(=O)N[C@@H](CCC(=O)O)C(=O)N[C@@H](CCCNC(=N)N)C(=O)N[C@@H](CCC(N)=O)C(=O)N[C@H](CCCNC(=N)N)C(N)=O | 2.9 | 30 nM
Cc1cn(CC(=O)N(CCNC(=O)CCC(=O)O)CC(=O)NCCN(CC(=O)NCCN(CC(=O)NCCN(CC(=O)NCCN(CC(=O)N[C@@H](C)C(=O)N[C@@H](CCCNC(=N)N)C(=O)N[C@@H](CCCNC(=N)N)C(=O)N[C@@H](CC(N)=O)C(=O)N[C@@H](CCCNC(=N)N)C(=O)N[C@@H](CCCNC(=N)N)C(=O)N[C@@H](CCCNC(=N)N)C(=O)N[C@@H](CCCNC(=N)N)C(=O)N[C@@H](Cc2c[nH]c3ccccc23)C(=O)N[C@@H](CCCNC(=N)N)C(=O)N[C@@H](CCC(=O)O)C(=O)N[C@@H](CCCNC(=N)N)C(=O)N[C@@H](CCC(N)=O)C(=O)N[C@H](CCCNC(=N)N)C(N)=O)C(=O)Cn2ccc(N)nc2=O)C(=O)Cn2cnc3c(=O)[nH]c(N)nc32)C(=O)Cn2ccc(N)nc2=O)C(=O)Cn2cnc3c(=O)[nH]c(N)nc32)c(=O)[nH]c1=O | 16 | 5.4 nM
Cc1cn(CC(=O)N(CCNC(=O)CCC(=O)O)CC(=O)NCCN(CC(=O)N[C@@H](C)C(=O)N[C@@H](CCCNC(=N)N)C(=O)N[C@@H](CCCNC(=N)N)C(=O)N[C@@H](CC(N)=O)C(=O)N[C@@H](CCCNC(=N)N)C(=O)N[C@@H](CCCNC(=N)N)C(=O)N[C@@H](CCCNC(=N)N)C(=O)N[C@@H](CCCNC(=N)N)C(=O)N[C@@H](Cc2c[nH]c3ccccc23)C(=O)N[C@@H](CCCNC(=N)N)C(=O)N[C@@H](CCC(=O)O)C(=O)N[C@@H](CCCNC(=N)N)C(=O)N[C@@H](CCC(N)=O)C(=O)N[C@H](CCCNC(=N)N)C(N)=O)C(=O)Cn2ccc(N)nc2=O)c(=O)[nH]c1=O | 3.2 | 27 nM
C[C@H](NC(=O)CN(CCNC(=O)CCC(=O)O)C(=O)Cn1ccc(N)nc1=O)C(=O)N[C@@H](CCCNC(=N)N)C(=O)N[C@@H](CCCNC(=N)N)C(=O)N[C@@H](CC(N)=O)C(=O)N[C@@H](CCCNC(=N)N)C(=O)N[C@@H](CCCNC(=N)N)C(=O)N[C@@H](CCCNC(=N)N)C(=O)N[C@@H](CCCNC(=N)N)C(=O)N[C@@H](Cc1c[nH]c2ccccc12)C(=O)N[C@@H](CCCNC(=N)N)C(=O)N[C@@H](CCC(=O)O)C(=O)N[C@@H](CCCNC(=N)N)C(=O)N[C@@H](CCC(N)=O)C(=O)N[C@H](CCCNC(=N)N)C(N)=O | 2.8 | 31 nM
